Values quoted from earlier work, collected in patent US6087327A (priority 1998, dated 2000).

Test system: neurotransmitter release process

Q: Which “reversal of inhibition produced by botulinum neurotoxin A” value does the source give for `Nc1ccncc1` [aminopyridine] here?
A: more effective
